Results reported in US20060264460A1 (Wyeth, priority 2005, published 2006).

Biological target: T1, human Cot/Tpl2 kinase (Homo sapiens, UniProt P41279)
T1 construct: human Cot/Tpl2 kinase construct encoding residues 30-398; 6His (N); made in house; host or cells: Sf9 insect cells, baculovirus system (BD Biosciences)
Test: Tpl2/Cot kinase assay: GST-MEK1 phosphorylation detected by ELISA (DELFIA Eu)
Format: biochemical
Conditions: 0.4 nM Tpl2, 35 nM GST-MEK1, 50 uM ATP, 1 h at 30° C.
Method in brief: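 His-tagged human Tpl2 from Sf9 cells, Ni-affinity and size-exclusion purified (monomer). 0.4 nM Tpl2 with 35 nM GST-MEK1, 50 uM ATP, MOPS pH 7.2, 1% DMSO, 1 h at 30° C; EDTA stop. MEK1 Ser217/221 phosphorylation detected by anti-phospho-MEK1 and Eu-labelled secondary ELISA; IC50 fitted.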

T1 sequence (P41279 30-398): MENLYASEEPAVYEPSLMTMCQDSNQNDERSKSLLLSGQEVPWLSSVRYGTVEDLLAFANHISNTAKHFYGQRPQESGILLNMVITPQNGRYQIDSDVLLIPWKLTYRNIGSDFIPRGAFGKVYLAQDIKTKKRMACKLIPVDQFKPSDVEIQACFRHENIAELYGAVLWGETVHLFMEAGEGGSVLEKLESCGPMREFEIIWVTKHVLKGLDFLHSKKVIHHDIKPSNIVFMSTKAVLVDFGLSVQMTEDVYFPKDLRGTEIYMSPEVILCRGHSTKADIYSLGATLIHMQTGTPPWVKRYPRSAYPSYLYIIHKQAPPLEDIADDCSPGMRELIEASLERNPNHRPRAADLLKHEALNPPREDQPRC

SMILES	IC50 [nM]
N#Cc1cnc2c(Cl)cc(NCc3cn(CC(=O)NCc4ccccn4)nn3)cc2c1Nc1ccc(F)c(Cl)c1 [Example 320, 2-(4-((8-chloro-4-(3-chloro-4-fluorophenylamino)-3-cyanoquinolin-6-ylamino)methyl)-1H-1,2,3-triazol-1-yl)-N-(pyridin-2-ylmethyl)acetamide]	5.6
CN(Cc1cn(CCC2CCCN2C)nn1)c1cc(Cl)c2ncc(C#N)c(Nc3ccc(F)c(Cl)c3)c2c1 (stereo not drawn) [Example 321, 8-chloro-4-(3-chloro-4-fluorophenylamino)-6-(methyl((1-(2-(1-methylpyrrolidin-2-yl)ethyl)-1H-1,2,3-triazol-4-yl)methyl)amino)quinoline-3-carbonitrile]	490
CC(C)(C)OC(=O)N1CCC(CNc2cc(Cl)c3ncc(C#N)c(Nc4ccc(F)c(Cl)c4)c3c2)CC1 [Example 322, tert-butyl 4-((8-chloro-4-(3-chloro-4-fluorophenylamino)-3-cyanoquinolin-6-ylamino)methyl)piperidine-1-carboxylate]	2120
N#Cc1cnc2c(Cl)cc(NCC3CCN(Cc4cccnc4)CC3)cc2c1Nc1ccc(F)c(Cl)c1 [Example 323, 8-chloro-4-(3-chloro-4-fluorophenylamino)-6-((1-(pyridin-3-ylmethyl)piperidin-4-yl)methylamino)quinoline-3-carbonitrile]	1360
CN1CCC[C@H]1CCn1cc(CNc2cc(Br)c3ncc(C#N)c(Nc4ccc(F)c(Cl)c4)c3c2)nn1 [Example 324, (S)-8-bromo-4-(3-chloro-4-fluorophenylamino)-6-((1-(2-(1-methylpyrrolidin-2-yl)ethyl)-1H-1,2,3-triazol-4-yl)methylamino)quinoline-3-carbonitrile]	50
CS(=O)(=O)NCCNc1cc(Cl)c2ncc(C#N)c(Nc3ccc(F)c(Cl)c3)c2c1 [Example 326, N-[2-({8-chloro-4-[(3-chloro-4-fluorophenyl)amino]-3-cyanoquinolin-6-yl}amino)ethyl]methanesulfonamide]	70
CN1CCCC(n2cc(CNc3cc(Cl)c4ncc(C#N)c(Nc5ccc(F)c(Cl)c5)c4c3)nn2)CC1 (stereo not drawn) [Example 329, 8-chloro-4-[(3-chloro-4-fluorophenyl)amino]-6-({[1-(1-methylazepan-4-yl)-1H-1,2,3-triazol-4-yl]methyl}amino)quinoline-3-carbonitrile]	4.4
CCN1CCCC(n2cc(CNc3cc(Cl)c4ncc(C#N)c(Nc5ccc(F)c(Cl)c5)c4c3)nn2)CC1 (stereo not drawn) [Example 330, 8-chloro-4-[(3-chloro-4-fluorophenyl)amino]-6-({[1-(1-ethylazepan-4-yl)-1H-1,2,3-triazol-4-yl]methyl}amino)quinoline-3-carbonitrile]	8.5
CC(C)N1CCCC(n2cc(CNc3cc(Cl)c4ncc(C#N)c(Nc5ccc(F)c(Cl)c5)c4c3)nn2)CC1 (stereo not drawn) [Example 331, 8-chloro-4-[(3-chloro-4-fluorophenyl)amino]-6-({[1-(1-isopropylazepan-4-yl)-1H-1,2,3-triazol-4-yl]methyl}amino)quinoline-3-carbonitrile]	8.2
N#Cc1cnc2c(Cl)cc(NCc3cn(C4CCC5(CC4)OCCO5)nn3)cc2c1Nc1ccc(F)c(Cl)c1 [Example 332, 8-chloro-4-[(3-chloro-4-fluorophenyl)amino]-6-({[1-(1,4-dioxaspiro[4.5]dec-8-yl)-1H-1,2,3-triazol-4-yl]methyl}amino)quinoline-3-carbonitrile]	39
N#Cc1cnc2c(Cl)cc(NCc3cn(C4CCC(=O)CC4)nn3)cc2c1Nc1ccc(F)c(Cl)c1 [Example 333, 8-chloro-4-[(3-chloro-4-fluorophenyl)amino]-6-({[1-(4-oxocyclohexyl)-1H-1,2,3-triazol-4-yl]methyl}amino)quinoline-3-carbonitrile]	1.1
N#Cc1cnc2c(Cl)cc(NCc3cn(C4CCC(O)(c5ccccn5)CC4)nn3)cc2c1Nc1ccc(F)c(Cl)c1 (stereo not drawn) [Example 335, 8-chloro-4-[(3-chloro-4-fluorophenyl)amino]-6-({[1-(4-hydroxy-4-pyridin-2-ylcyclohexyl)-1H-1,2,3-triazol-4-yl]methyl}amino)quinoline-3-carbonitrile]	20
